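Cells were grown in 96-well plates and exposed to each compound for 48 hours at five concentrations; endpoints were interpolated linearly between bracketing concentrations, or set to the highest concentration if not reached. Here, GI50 denotes the concentration required for 50% inhibition of growth.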 Activity calls are given as the source filed them. Rule as the data show it: active = GI50 up to about 1.1 µM and inactive = higher.
Assays:
Test in all cases: DTP human tumour cell line panel, 48 h
NCI-H522 = tested on: NCI-H522
OVCAR-4 = tested on: OVCAR-4
KM12 = tested on: KM12
SF-295 = tested on: SF-295
OVCAR-5 = tested on: OVCAR-5
IGROV-1 = tested on: IGROV-1
K562 = tested on: K562
SN12C = tested on: SN12C
SK-MEL-2 = tested on: SK-MEL-2
CCRF-CEM = tested on: CCRF-CEM
SR = tested on: SR
MDA-MB-435 = tested on: MDA-MB-435
M14 = tested on: M14
786-0 = tested on: 786-0
SNB-19 = tested on: SNB-19
A498 = tested on: A498
CAKI-1 = tested on: CAKI-1
BT-549 = tested on: BT-549

Compound | GI50 (NCI-H522) | GI50 (OVCAR-4) | GI50 (KM12) | GI50 (SF-295) | GI50 (OVCAR-5) | GI50 (IGROV-1) | GI50 (K562) | GI50 (SN12C) | GI50 (SK-MEL-2) | GI50 (CCRF-CEM) | GI50 (SR) | GI50 (MDA-MB-435) | GI50 (M14) | GI50 (786-0) | GI50 (SNB-19) | GI50 (A498) | GI50 (CAKI-1) | GI50 (BT-549)
CSS(C)(=O)=O | 18.2 µM (inactive) | 27.4 µM (inactive) | 34.3 µM (inactive) | 23.1 µM (inactive) | 17.5 µM (inactive) | 23.2 µM (inactive) | 31.3 µM (inactive) | 21.5 µM (inactive) | 27.3 µM (inactive) | < 0.01 µM (active) | 15.3 µM (inactive) | 20.2 µM (inactive) | 26.6 µM (inactive) | 39.6 µM (inactive) | > 100 µM (inactive) | > 100 µM (inactive) | 22.8 µM (inactive) | –
Cc1cc2nc3c(C#N)c4c(c(Nc5ccc(Cl)cc5)n3c2cc1C)CCC4 | 13.6 µM (inactive) | 32.5 µM (inactive) | 32.9 µM (inactive) | > 100 µM (inactive) | 17.3 µM (inactive) | – | – | 19.4 µM (inactive) | – | – | – | 33.5 µM (inactive) | – | 15.9 µM (inactive) | – | > 100 µM (inactive) | 20.5 µM (inactive) | 23.8 µM (inactive)
COc1ccc(/C=C/C(=N/NC(=O)N/N=C(/C=C/c2ccc(OC)cc2)C(C)(C)CN2CCCCC2)C(C)(C)CN2CCCCC2)cc1 | 2.07 µM (inactive) | 1.88 µM (inactive) | 1.81 µM (inactive) | 1.87 µM (inactive) | 2.96 µM (inactive) | 2.27 µM (inactive) | 0.467 µM (active) | 2.7 µM (inactive) | 1.62 µM (inactive) | 1.27 µM (inactive) | 0.234 µM (active) | – | 1.71 µM (inactive) | 1.59 µM (inactive) | 2.61 µM (inactive) | 2.22 µM (inactive) | 1.83 µM (inactive) | 1.98 µM (inactive)
Cc1ccc2c(c1)C(=O)C1(C2)Cc2ccc(C)cc2C1=O | > 100 µM (inactive) | > 100 µM (inactive) | – | > 100 µM (inactive) | > 100 µM (inactive) | > 100 µM (inactive) | > 100 µM (inactive) | – | 87.3 µM (inactive) | > 100 µM (inactive) | > 100 µM (inactive) | > 100 µM (inactive) | > 100 µM (inactive) | > 100 µM (inactive) | > 100 µM (inactive) | > 100 µM (inactive) | > 100 µM (inactive) | –
CC(=O)/C(=C/NC(=S)Nc1ccc(Cl)c(Cl)c1)C(=O)Nc1ccccc1C | – | 18.6 µM (inactive) | 24.9 µM (inactive) | 32 µM (inactive) | 32 µM (inactive) | 27.4 µM (inactive) | – | 35.7 µM (inactive) | 28 µM (inactive) | – | – | 28.3 µM (inactive) | 37 µM (inactive) | 35 µM (inactive) | 26.8 µM (inactive) | 26.2 µM (inactive) | 22.3 µM (inactive) | 25.5 µM (inactive)
COC(=O)/C=C/c1ccc2c(c1)CC1(Cc3ccccc3C1)C2 | 56.9 µM (inactive) | > 100 µM (inactive) | > 100 µM (inactive) | > 100 µM (inactive) | > 100 µM (inactive) | > 100 µM (inactive) | 37.5 µM (inactive) | > 100 µM (inactive) | > 100 µM (inactive) | 28 µM (inactive) | 32.6 µM (inactive) | 41.3 µM (inactive) | > 100 µM (inactive) | > 100 µM (inactive) | – | > 100 µM (inactive) | – | –
CN(c1ccc(Cl)cc1)S(=O)(=O)c1ccc([N+](=O)[O-])cc1 | > 100 µM (inactive) | > 100 µM (inactive) | > 100 µM (inactive) | > 100 µM (inactive) | > 100 µM (inactive) | > 100 µM (inactive) | > 100 µM (inactive) | > 100 µM (inactive) | > 100 µM (inactive) | > 100 µM (inactive) | – | > 100 µM (inactive) | > 100 µM (inactive) | > 100 µM (inactive) | > 100 µM (inactive) | – | > 100 µM (inactive) | > 100 µM (inactive)

Reference: ChEMBL document CHEMBL1201862, “PubChem BioAssay data set” (2004)
